{
  "source": "paper PMC4627231",
  "about": "“Targeting the sugar metabolism of tumors with a first-in-class 6-phosphofructo-2-kinase (PFKFB4) inhibitor” (Oncotarget, 2015)",
  "origin": "cited, not measured here",
  "test_system": "breast cancer patients",
  "set-up": "method as in PMID 25524798",
  "conditions": "cited from earlier work",
  "data": [
    {"smiles": "CC(=O)c1c(C)c2cnc(Nc3ccc(N4CCNCC4)cn3)nc2n(C2CCCC2)c1=O", "note": "[palbociclib]", "values": [
      {"measurement": "progression-free survival", "result": "double"},
      {"measurement": "toxicity", "result": "without causing excessive toxicity"}
    ]}
  ]
}
